Target: T1, human CXCR3 (N-delta 4) (Homo sapiens, UniProt P49682)
T1 construct: CD8 leader (N); Flag tag (N); expressed in transfected cells; host or cells: mouse pro-B Ba/F3 cells, stably transfected with pME18Sneo-hCXCR3 (N-delta 4); membrane preparation
T1 sequence (P49682 5-368 limits assumed): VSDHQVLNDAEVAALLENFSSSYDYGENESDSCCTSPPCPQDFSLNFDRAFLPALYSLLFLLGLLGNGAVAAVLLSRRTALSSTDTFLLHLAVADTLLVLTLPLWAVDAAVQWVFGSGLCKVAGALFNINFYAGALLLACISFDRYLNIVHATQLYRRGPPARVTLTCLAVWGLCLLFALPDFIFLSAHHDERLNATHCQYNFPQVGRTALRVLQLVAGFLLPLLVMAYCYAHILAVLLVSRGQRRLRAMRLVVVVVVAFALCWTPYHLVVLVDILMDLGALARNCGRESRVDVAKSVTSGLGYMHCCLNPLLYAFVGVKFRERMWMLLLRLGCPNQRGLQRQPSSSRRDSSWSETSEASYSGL
Assay: Human CXCR3 (N-delta 4) Scintillation Proximity Assay (SPA), [125I] IP-10 binding
Details: IC50 rating; Ba/F3-hCXCR3 (N-delta 4) membranes, 25 pM [125I] IP-10; read-out: IC50
Text: The inventive compounds can readily be evaluated to determine activity at The CXCR3 receptors by known methods, such as, for example, Development of Human CXCR3 (N-delta 4) Binding Assay.
Cloning and Expression of Human CXCR3 (N-delta 4):
The DNA encoding human CXCR3 was cloned by PCR using human genomic DNA (Promega, Madison, Wis.) as a template. The PCR primers were designed based on the published sequence of human orphan receptor GPR9 (1) with incorporated restriction sites, a Kozak consensus sequence, CD8 leader and Flag tag. The PCR product was subcloned into the mammalian expression vector pME18Sneo, a derivative of the SR-alpha expression vector (designated as pME18Sneo-hCXCR3 (N-delta 4).
IL-3-dependent mouse pro-B cells Ba/F3 were transfected by electroporation in 0.4 ml Dulbecco's PBS containing 4×10^6 cells with 20 μg of pME18Sneo-hCXCR3 (N-delta 4) plasmid DNA. Cells were pulsed at 400 Volts, 100 OHMs, 960 μFd. The transfected cells were under selection with 1 mg/ml G418 (Life Technologies, Gaithersburg, Md.). G418-resistant Ba/F3 clones were screened for CXCR3 expression by specific binding of [^125I] IP-10 (NEN Life Science Products, Boston, Mass.).
Preparation of Ba/F3-hCXCR3 (N-delta 4) Membranes:
Ba/F3 cells expressing human CXCR3 (N-delta 4) were pelleted and resuspended in the lysis buffer containing 10 mM HEPES, pH 7.5 and Complete® protease inhibitors (1 tablet per 100 ml) (Boehringer Mannheim, Indianapolis, Ind.) at a cell density of 20×10^6 cells per ml. After 5 minutes incubation on ice, cells were transferred to 4639 cell disruption bomb (Parr Instrument, Moline, Ill.) and applied with 1,500 psi of nitrogen for 30 minutes on ice. Large cellular debris was removed by centrifugation at 1,000×g. Cell membrane in the supernatant was sedimented at 100,000×g. The membrane was resuspended in the lysis buffer supplemented with 10% sucrose and stored at −80° C. Total protein concentration of the membrane was determined by BCA method from Pierce (Rockford, Ill.).
Human CXCR3 (N-delta 4) Scintillation Proximity Assay (SPA):
For each assay point, 2 μg of membrane was preincubated for 1 hr with 300 μg wheat germ agglutinin (WGA) coated SPA beads (Amersham, Arlington Heights, Ill.) in the binding buffer (50 mM HEPES, 1 mM CaCl2, 5 mM MgCl2, 125 mM NaCl, 0.002% NaN3, 1.0% BSA) at room temperature. The beads were spun down, washed once, resuspended in the binding buffer and transferred to a 96-well Isoplate (Wallac, Gaithersburg, Md.). 25 pM of [^125I] IP-10 with tested compounds in a series of titration were added to start the reaction. After 3 hr reaction at room temperature, the amount of [^125I] IP-10 bound to the SPA beads was determined with a Wallac 1450 Microbeta counter.
The Ki values for the various example compounds of the present invention are given in the afore-mentioned Table 1. From these values, it would be apparent to the skilled artisan that the compounds of the invention have excellent utility CXCR3 antagonists.

**Q.** `CC[C@H]1CN(c2nc(N)c(-c3nnco3)nc2Cl)CCN1C1CCN(Cc2ccc(Cl)cc2)CC1` [Compound 50] was tested. Which IC50 did it give?
**A.** Its IC50 is less than 25 nM.

**Q.** How did the IC50 turn out when `CC[C@H]1CN(c2ncc(-c3nnc(C)[nH]3)nc2Cl)CCN1C1CCN(C(=O)c2ccc(Cl)cc2)CC1` [Compound 51] was run?
**A.** Its IC50 is less than 25 nM.

**Q.** Which IC50 does the source give for `CC[C@H]1CN(c2nc(N)c(-c3nnc(C4CC4)o3)nc2Cl)CCN1C1CCN(C(=O)c2ccc(Cl)nc2N)CC1` [Compound 52] here?
**A.** Its IC50 is less than 25 nM.

**Q.** How did the IC50 turn out when `CC[C@H]1CN(c2ncc(-c3nnc(C)[nH]3)nc2C)CCN1C1CCN(C(=O)c2ccc(Cl)cc2)CC1` [Compound 53] was run?
**A.** The IC50 was less than 25 nM.

**Q.** Which IC50 does the source give for `CC[C@H]1CN(c2nc(F)c(-c3nnc(C)o3)nc2Cl)CCN1C1CCN(C(=O)c2ccc(Cl)cc2)CC1` [Compound 54] here?
**A.** The IC50 was less than 25 nM.

**Q.** `CC[C@H]1CN(c2nc(N)c(-c3nnc(C)o3)nc2Cl)CCN1C1CCN(Cc2ccc(Cl)cc2-c2nnn[nH]2)CC1` [Compound 55] was tested. Which IC50 did it give?
**A.** The IC50 was less than 25 nM.

**Q.** With `CC[C@H]1CN(c2nc(N)c(-c3nnc(N)o3)nc2Cl)CCN1C1CCN(C(=O)c2ccc(C#N)cc2)CC1` [Compound 56] as the molecule, how does the IC50 read?
**A.** Its IC50 is less than 25 nM.

**Q.** Which IC50 does the source give for `CC[C@H]1CN(c2nc(N)c(-c3nnc(C)o3)nc2Cl)CCN1C1CCN(C(=O)c2ccc(Cl)nc2)CC1` [Compound 57] here?
**A.** Its IC50 is less than 25 nM.

**Q.** How did the IC50 turn out when `CC[C@H]1CN(c2nc(N)c(-c3nnc(C)o3)nc2Cl)CCN1C1CCN(Cc2ccc(Cl)cc2-c2nnn(C)n2)CC1` [Compound 58] was run?
**A.** The IC50 was less than 25 nM.

**Q.** Which IC50 does the source give for `CC[C@H]1CN(c2nc(N)c(-c3nnc(C(F)(F)F)o3)nc2Cl)CCN1C1CCN(Cc2ccc(Cl)cc2)CC1` [Compound 59] here?
**A.** The IC50 was less than 25 nM.

**Q.** For `CCO/C=N\c1nc(N2CCN(C3CCN(Cc4ccc(Cl)cc4)CC3)[C@@H](CC)C2)c(Cl)nc1-c1nnco1` [Compound 60], which IC50 is on record?
**A.** The IC50 was less than 25 nM.

**Q.** Which IC50 does the source give for `CC[C@H]1CN(c2nc(N)c(-c3nnc(C)o3)nc2Cl)CCN1C1CCN([C@@H](C(=O)OC)c2ccc(Cl)cc2)CC1` [Compound 61] here?
**A.** The IC50 was less than 25 nM.

**Q.** With `CC[C@H]1CN(c2nc(N)c(-c3nnc(C)o3)nc2Cl)CCN1C1CCN([C@H](CO)c2ccc(Cl)cc2)CC1` [Compound 62] as the molecule, how does the IC50 read?
**A.** The IC50 was less than 25 nM.

**Q.** Which IC50 does the source give for `CC[C@H]1CN(c2ncc(-c3nnc(C)o3)nc2C)CCN1C1CCN(C(=O)c2ccc(F)c(F)c2)CC1` [Compound 63] here?
**A.** The IC50 was less than 25 nM.

**Q.** `CC[C@H]1CN(c2ncc(-c3nnc(C)o3)nc2C)CCN1C1CCN(C(=O)c2ccc(C#N)cc2)CC1` [Compound 64] was tested. Which IC50 did it give?
**A.** Its IC50 is less than 25 nM.

**Q.** How did the IC50 turn out when `CC[C@H]1CN(c2ncc(-c3nnc(C)o3)nc2C)CCN1C1CCN(C(=O)c2ccc(OC(F)(F)F)cc2)CC1` [Compound 65] was run?
**A.** Its IC50 is less than 25 nM.

**Q.** Which IC50 does the source give for `CC[C@H]1CN(c2ncc(-c3nnc(N)[nH]3)nc2Cl)CCN1C1CCN(C(=O)c2ccc(Cl)cc2)CC1` [Compound 66] here?
**A.** The IC50 was less than 25 nM.

**Q.** Which IC50 does the source give for `CC[C@H]1CN(c2nc(N)c(-c3nnc(C)o3)nc2Cl)CCN1C1CCN(C(=O)c2ccc(Cl)cc2O)CC1` [Compound 67] here?
**A.** The IC50 was less than 25 nM.

**Q.** Which IC50 does the source give for `CC[C@H]1CN(c2nc(N)c(-c3nnc(N)[nH]3)nc2Cl)CCN1C1CCN(C(=O)c2ccc(Cl)cc2)CC1` [Compound 68] here?
**A.** The IC50 was less than 25 nM.

**Q.** For `CC[C@H]1CN(c2nc(N)c(-c3nnc(CO)o3)nc2Cl)CCN1C1CCN([C@H](CO)c2ccc(Cl)cc2)CC1` [Compound 69], which IC50 is on record?
**A.** Its IC50 is less than 25 nM.

**Q.** With `CC[C@H]1CN(c2nc(N)c(-c3nnc(C(N)=O)o3)nc2Cl)CCN1C1CCN(C(=O)c2ccc(Cl)cc2)CC1` [Compound 70] as the molecule, how does the IC50 read?
**A.** Its IC50 is less than 25 nM.

**Q.** With `CC[C@H]1CN(c2nc(N)c(-c3nnc(N(C)C)o3)nc2Cl)CCN1C1CCN(C(=O)c2ccc(Cl)nc2N)CC1` [Compound 71] as the molecule, how does the IC50 read?
**A.** Its IC50 is less than 25 nM.

**Q.** How did the IC50 turn out when `CC[C@H]1CN(c2ncc(-c3nnc(N)o3)nc2C)CCN1C1CCN(C(=O)c2ccc(C(F)(F)F)cc2)CC1` [Compound 72] was run?
**A.** Its IC50 is less than 25 nM.

**Q.** How did the IC50 turn out when `CC[C@H]1CN(c2nc(N)c(-c3nnc(C(=O)NC4CC4)o3)nc2Cl)CCN1C1CCN(C(=O)c2ccc(Cl)nc2N)CC1` [Compound 73] was run?
**A.** Its IC50 is 25 to 100 nM.

**Q.** How did the IC50 turn out when `CC[C@H]1CN(c2nc(N)c(-c3nnc(C)o3)nc2Cl)CCN1C1CCN(C(=O)c2ccc(Cl)cc2NC(=O)C(F)(F)F)CC1` [Compound 74] was run?
**A.** Its IC50 is 25 to 100 nM.

**Q.** Which IC50 does the source give for `CC[C@H]1CN(c2nc(N)c(-c3nnc(NCC(N)=O)o3)nc2Cl)CCN1C1CCN(C(=O)c2ccc(Cl)nc2N)CC1` [Compound 75] here?
**A.** Its IC50 is 25 to 100 nM.

Source: patent US7868006B2, “Heterocyclic substituted piperazines with CXCR3 antagonist activity” (Schering Corporation, priority 2005, dated 2011)
